Consider twelve molecules from patent publication US20050227915A1, “Methods and reagents for treating neurodegenerative diseases and motor deficit disorders” (priority 2001, published 2005).

“Also recorded” adds a separate entry of the source. Like-named read-outs stand apart in the source and are kept apart here.

The subject of series [1] is flies expressing Httex1p Q93. In words: Pseudopupil analysis of rhabdomeres in flies expressing Httex1p Q93. Format: in vivo, Drosophila. An excerpt: (§1) Drosophila stocks and crosses. Expression of polyglutamine-containing peptides is driven by the bipartite expression system activator sequence (UAS)-GAL4 in transgenic flies (Marsh, J. L. et al. (2000) Hum. Mol. Gen. 9, 13-25).
Injection of plasmids expressing Httex1p with 20 or 93 glutamines produced nine and ten lines, respectively. Two lines with the most severe neuronal phenotype (P463 and P465) were chosen for the experiments described herein. Polyglutamine stocks are w;P(w^+mC=UAS-Q93httexon1)^4F1 and w;P(w^+mC=UAS-Q48+myc/flag)^20. Constructs under the control of a yeast UAS were crossed to flies expressing the yeast GAL4 transcriptional activator (Brand, A. and Perrimon, N., supra) driven by the neuron-specific promoter elav (chromosome 2 driver for Q48 lines, Luo, L. et al. (1994) Genes Dev. 8, 1787-1802, and X-chromosome driver for Htt exon 1 lines, Lin, D. M. & Goodman, C. S. (1994) Neuron 13, 507-523) that is expressed in all neurons from embryogenesis onwards: w;P(w^+mC;w+; elav-GAL4)/CyO, P(w^+mC=Act-GFP)JMR1CyO actin-GFP or w;P(w^+mW.hs=GawB)elavC155. […]
Pseudopupil analysis and transgene expression. […] Eyes were analyzed with a Nikon EFD-3/Optiphot-2 scope using a 50× objective, and photographed with a Spot camera. At least 200 ommatidia were scored for each condition. […]

Series [2] deals with PC12 cells induced to express Httex1p (103QP). The series can be described thus: Histone acetylation analysis in PC12 cell extract (Western blot). The class given is cell-based. The note with it: PC12 F103QP-EGFP cells, uninduced and induced, 5 mM sodium butyrate for last 24 h. The method, then:
Histone acetylation analysis in PC12 cell extract. PC12 cells, stably transfected with ecdysone-inducible (Invitrogen) F103QP-EGFP were plated, induced with 5 μM ponasterone (Invitrogen) for 48 h, and treated for the last 24 h with 5 mM sodium butyrate. Controls included uninduced and/or non-butyrate-treated cells. Cells were lysed in 1×HAT buffer with 50 mM NaCl, 0.3% NP-40, and a protease-inhibitor cocktail on ice for 10 min. A 50 μg aliquot of whole cell extract was analyzed by Western blot.
Separate, independently-derived, ecdysone-inducible PC12 cell lines, denoted PC12/pBWN:Htt ex1Q103-EGFP cells and PC12/pWN:Httex1Q25-EGFP (E. S. Schweitzer, UCLA), were also analyzed. These clonal cells contain a modified exon 1 of Htt inserted into an expression vector containing the Bombyx ecdysone-regulated element (described in Suhr, S. T., et al. (1998) Proc. Natl. Acad. Sci. U.S.A. 95, 7999-8004).
Twenty-five micrograms of whole cell extracts from PC12 cells stably transfected with plasmids encoding inducible 25QP-EGFP and 103QP-EGFP was analyzed for […]. Control cells (uninduced) and cells induced with 1 μM tebufenizide for 12 h were analyzed by Western blots. Anti-acetylated histone H4, anti-histone H3 and anti-acetylated histone H3 (all from Upstate Biotechnology) were used to determine levels of acetylated histones H3 and H4 relative to levels of total H3.
In general terms: Immunoblotting shows a protein as a band on a membrane.

In another series the test system is deacetylase. The note with it: cited from earlier work.
Another series concerns flies expressing Q48. In words: Pseudopupil analysis of rhabdomeres in flies expressing Q48 polyglutamine peptides. The note with it: for progressive photoreceptor neuron degeneration: feeding initiated only in adult flies; for distribution of rhabdomeres by day 6: Q48 flies fed inhibitor, data not shown; for neurodegenerative effect of Q48 (photographs of ommatidia): in vivo. The class given is in vivo, Drosophila.
From the text: as §1
Injection of plasmids expressing Httex1p with 20 or 93 glutamines produced nine and ten lines, respectively. Two lines with the most severe neuronal phenotype (P463 and P465) were chosen for the experiments described herein. Polyglutamine stocks are w;P(w^+mC=UAS-Q93httexon1)^4F1 and w;P(w^+mC=UAS-Q48+myc/flag)^20. Constructs under the control of a yeast UAS were crossed to flies expressing the yeast GAL4 transcriptional activator (Brand, A. and Perrimon, N., supra) driven by the neuron-specific promoter elav (chromosome 2 driver for Q48 lines, Luo, L. et al. (1994) Genes Dev. 8, 1787-1802, and X-chromosome driver for Htt exon 1 lines, Lin, D. M. & Goodman, C. S. (1994) Neuron 13, 507-523) that is expressed in all neurons from embryogenesis onwards: w;P(w^+mC;w+; elav-GAL4)/CyO, P(w^+mC=Act-GFP)JMR1CyO actin-GFP or w;P(w^+mW.hs=GawB)elavC155.
For testing the effect of Sin3A on polyglutamine phenotypes, we crossed w;P(w^+mC=UAS-Q93httexon1)^4F1 virgins to w;P{w^+mCwPw;elav-GAL4)/Y;Sin3A^08269/Bc Gla males.
Pseudopupil analysis and transgene expression. Pseudopupil analysis allows visualization of the arrangement of rhabdomeres in the ommatidia of the compound eye (Franceschini, N. (1972) in Information processing in the visual systems of arthropods, ed. Wehner, R., pp 75-82). Adult flies were decapitated, one eye was dipped in a drop of nail polish and the head was mounted on a microscope slide. Eyes were analyzed with a Nikon EFD-3/Optiphot-2 scope using a 50× objective, and photographed with a Spot camera. At least 200 ommatidia were scored for each condition. For Western analysis of transgene expression, 20 larvae from each sample were ground in a buffer containing 0.1 M phosphate at pH7.1, 0.3 M sucrose, 0.02 mM phenylthiourea, protease cocktail and 0.1 mM PMSF, and 200 μg of total lysate were loaded per lane.

A further series concerns R6/2 mice. The series can be described thus: Rotarod analysis of motor impairment. Format: in vivo. As to the method:
(§2) Animals. […] Control mice were wild-type female littermates.
(§3) Behavioral analysis: Rotarod impairment was assessed on a Ugo Basile 7650 accelerating Rotarod (Linton Instrumentation, UK), modified as previously described (Hockly et al, submitted). Animals (R6/2: n=13, wild-type: n=12 per treatment group) were tested at 4 weeks of age to establish their baseline performance and then at 8, 10 and 12 weeks of age. Grip strength was measured once per fortnight (Hockly et al. submitted) and animals weighed weekly to the nearest 0.1 g. Statistical analysis of grip strength used ANOVA on the mean grip strength. Rotarod data were analyzed at each time point using repeated measures in a linear mixed effects model (in S-plus).

A short description of series [3]: Body weight in SAHA preclinical trial. Format: in vivo, mice. The method, then:
as §2, §3

How the values of series [4] were obtained:
Drug Formulation. […] This solution was administered to mice in place of drinking water and replaced weekly.
Animals. Affected mice were hemizygous R6/2 females (Mangiarini, L., et al. (1996) Cell 87: 493-506) (available from the Induced Mutant Resource, Jackson Laboratory, Bar Harbor Me., code B6CBA-TgN (HDexon1)62), bred and reared in our colony by backcrossing R6/2 males to C57BL/6×CBA F1 females. Transgenic animals were identified prior to weaning by PCR of tail-tip DNA and CAG repeat size was determined (Mangiarini, L., et al. (1997) Nat Genet 15: 197-200). Control mice were wild-type female littermates. Mice were weaned into their treatment groups at 4 weeks of age. […] From age 12 weeks, all animals were additionally given mash consisting of powdered chow mixed with the drug solution as given in the drinking bottle. The mice were subject to a 12 hour light (08:00-20:00), 12 hour dark (20:00-08:00) cycle. Living conditions and baseline characteristics of study groupings were standardized as previously described (Hockly et al. submitted).
Assuming that a 20 g mouse drinks 3 ml/day, this corresponds to a dose of 1.33 g/l.
Drug administration commenced at 30 days of age after an initial testing week, which was used to assort the mice into well-matched treatment groups (FIG. 28a).

Series [5] has as its system huntingtin aggregate load. In words: Organotypic hippocampal slice culture assay of polyQ aggregation. Format: cell-based, R6/2 mice. The method, then: The present inventors established that HOP-[…]-CD has no effect on polyQ aggregation over a 5-log concentration range (data not shown) and therefore the HOP-[…]-CD concentration required to complex 250 μM was used as the vehicle. The medium was changed twice weekly and slices were fixed at weekly intervals from 2 weeks in culture. The huntingtin aggregate load was assessed by quantitative indirect immunofluorescence and results were analyzed using the general linear model ANOVA with false discovery rate correction (Hochberg, Y. & Benjamini, Y. (1990) Stat Med 9: 811-8).
We have developed this technique to bridge the gap between wholly in vitro aggregation assays and preclinical trials and allow us to quantify aggregate formation in a system in which aggregates form at the same rate and in the same sequence as they do in vivo.

Regarding `CCCC(=O)O` [butyrate, Butyric acid], in series [1] (flies fed 100 mM butyrate), the “number of rhabdomeres per ommatidium at 6 days after eclosion” value is listed as “markedly improved”. In addition, in series [1] (larvae reared on inhibitor-containing food), the “level of degeneration (loss of rhabdomeres)” value is “reduces the level of degeneration observed”. Moreover, the “levels of histone H4 acetylation” value in series [2] is recorded as “can be reversed by butyrate treatment”. In addition, the “levels of histone H4 acetylation” value in series [2] (listed as sodium butyrate) is “increased”. Moreover, the “Effective Inhibitory Concentration Range” value in the series with deacetylase is reported as “mM”. Moreover, the “progressive photoreceptor neuron degeneration” value in the series with flies expressing Q48 (100 mM butyrate) was “still prevented; also recorded: arrested”. Moreover, in the series on flies expressing Q48, the “distribution of rhabdomeres by day 6” value is given as “same distribution of rhadomeres by day 6 as 1-day-old flies” and the “neurodegenerative effect of Q48 (photographs of ommatidia)” value is listed as “disrupts the neurodegenerative effect of Q48”.

On to Oxamflatin, for which the “Effective Inhibitory Concentration Range” value with deacetylase is “μM”.

Take `O=C(CCCCCN1C(=O)c2cccc3cccc(c23)C1=O)NO` [scriptaid, Scriptaid]: the “Effective Inhibitory Concentration Range” value with deacetylase is recorded as “nM-μM”.

As to `O=C(/C=C/c1cccc(C(=O)NO)c1)NO` [m-carboxy cinnamic acid bis-hydroxamic acid], the “Effective Inhibitory Concentration Range” value in the series with deacetylase is recorded as “nM-μM”.

`O=C(O)CCCc1ccccc1` [phenylbutyrate, Phenylbutyrate]: the “Effective Inhibitory Concentration Range” value in the series with deacetylase is recorded as “mM”.

Consider `Nc1ccccc1NC(=O)c1ccc(CNC(=O)OCc2cccnc2)cc1` [benzamide (MS-27-275), MS-275], for which the “Effective Inhibitory Concentration Range” value with deacetylase is recorded as “μM”.

As to `O=C(CCCCCCC(=O)Nc1ccccc1)NO` [SAHA, Suberoylanilide hydroxamic acid], the “Rotarod performance / motor impairment versus placebo” value in the series on R6/2 mice (R6/2, 0.67 g/l SAHA in HOP-[…]-CD in drinking water) was “strong and consistent improvement; also recorded: dramatically improves Rotarod performance; also recorded: highly significant improvement; also recorded: dramatically improve the motor impairment”. The “Rotarod latency to fall” value with R6/2 mice (R6/2, 0.67 g/l SAHA, 8 weeks of age) is 207 s; in the series on R6/2 mice (R6/2, 0.67 g/l SAHA, 10 weeks of age), 187 s; in the series with R6/2 mice (R6/2, 0.67 g/l SAHA, 12 weeks of age), 144 s. Moreover, in the series with R6/2 mice (R6/2, 0.67 g/l SAHA, 12 weeks versus placebo at 8 weeks), the “delay in the decline in Rotarod performance” value was “delay by as much as one month”. Besides, in the series with R6/2 mice (wild-type mice, 0.67 g/l SAHA), the “Rotarod performance versus placebo” value is “no significant difference”. Moreover, in the series with deacetylase, the effective concentration is about 2.5 µM. Further, the “failure of R6/2 mice to gain weight” value in series [3] (R6/2, 0.67 g/l SAHA) is given as “did not prevent; also recorded: did not ameliorate”. The “weight deficit compared to appropriate placebo group” value in series [3] (both wild-type and R6/2, 13 weeks, 0.67 g/l SAHA) is recorded as about 18%. In addition, the “weight gain compared to littermates on placebo” value in series [3] (wild-type and R6/2, 0.67 g/l SAHA) is “failed to gain weight to the same extent; also recorded: failing to gain weight at the same rate as placebo-treated mice”. Also, the “progressive photoreceptor neuron degeneration” value with flies expressing Q48 (2 μM SAHA) is reported as “still prevented; also recorded: arrested”. Also, the “distribution of rhabdomeres by day 6” value in the series on flies expressing Q48 is listed as “same distribution of rhadomeres by day 6 as 1-day-old flies”. Moreover, in the series on flies expressing Q48, the “neurodegenerative effect of Q48 (photographs of ommatidia)” value was “disrupts the neurodegenerative effect of Q48”. The “deaths before termination of the experiments at 13 weeks” value in series [4] (0.67 g/l, R6/2 and wild-type) is “no R6/2 mice or wild-type mice died”. Also, the OUTCOME result in series [4] (1.33 g/1, WT and R6/2, oral, 3 weeks) was “no adverse symptoms”; in series [4] (DE to 2 g/1, R6/2, oral, 1 week) it was “weight loss and one mouse (out of 4) died within one week”; in series [4] (DE to 2.67 g/1+, WT, oral, 3 weeks), “dramatic weight loss”. Further, the “mice that died at around 6 weeks of age” value in series [4] (1.33 g/l from 30 days of age, R6/2) is given as 2/13; in series [4] (1.33 g/l from 30 days of age, wild-type), 2/12. Further, the “weight less than mice on the corresponding placebo” value in series [4] (1.33 g/l from 30 days of age, after 2 weeks, wild-type and R6/2, data not shown) is “more than 20%”. The toxicity entry in series [4] (administration initiated at 30 days, doses […]1.33 g/l, wild-type and R6/2) was “toxic”. In addition, the “aggregate load versus vehicle control” value in series [5] (0.025 μM, 0.25 μM or 2.5 μM SAHA in HOP-[…]-CD, 3 and 4 weeks) is given as “no difference; also recorded: no effect”. For the same molecule, the “toxicity to slice cultures” value in series [5] (25 μM and 250 μM) was “toxic”.

In the case of `CN(C)c1ccc(C(=O)NCCCCCCCC(=O)NO)cc1` [DBCH, dimethylaminobenzamidylcaprylic hydroxamate], in the series with deacetylase, the “Effective Inhibitory Concentration Range” value is “nM-μM”.

As for `C/C=C1\NC(=O)[C@H]2CSSCC/C=C/[C@H](CC(=O)N[C@H](C(C)C)C(=O)N2)OC(=O)[C@H](C(C)C)NC1=O` [depsipeptide, Depsipeptide], in the series on deacetylase, the “Effective Inhibitory Concentration Range” value is “nM-μM”.

As for `O=C(CCCCCCC(=O)NO)NO` [suberic bis-hydroxamic acid], in the series on deacetylase, the “Effective Inhibitory Concentration Range” value is given as “nM-μM”.

For `O=C(CCCCCCC(=O)Nc1cccnc1)NO` [pyroxamide], in the series on deacetylase, the “Effective Inhibitory Concentration Range” value was “nM-μM”.

In the case of `C=C[C@@H](O)[C@@H]1O[C@H]1/C=C/[C@@H]1O[C@H]1[C@@H](C)O` [depudecin, Depudecin], the “Effective Inhibitory Concentration Range” value with deacetylase is on record as “μM”.
